Common to all, as to type: biochemical
Assay [1] deals with T1, recombinant human MMP-9 mixture (± 70% monomers and ± 30% trimers) (Homo sapiens, UniProt P14780).
T1 construct: made in house; host or cells: Sf9 insect cells
Description: Gelatin degradation assay, recombinant MMP-9 mixture. Particulars: recombinant human MMP-9 (Sf9) mix, best-fit value. The protocol: Compounds 5 and 7 were synthesized as previously reported. Full-length human proMMP-9 was produced by recombinant expression in Sf9 insect cells and purified by gelatin-Sepharose chromatography as previously described. Stable full-length proMMP-9 monomers and trimers were separated by glycerol gradient ultracentrifugation as previously described. ProMMP-9 mixture and the separated monomers and trimers were activated by incubation with the catalytic domain of MMP-3 (cat. No. 444217, Merck Millipore, Darmstadt, Germany) as previously described. Activation of proMMP-9 was confirmed by a band shift of ±10 kDa, corresponding to the removal of the auto-inhibitory propeptide domain and by detection of gelatinolytic activity with a previously described gelatin degradation assay. MMP-9 monomers and trimers purified from human neutrophils were purchased (Cat. No. 444,231 and 444232, Sigma-Aldrich, St. Louis, MO, USA). Examples of sample purities and activations can be found in Supplementary Figure S1. Recombinant human proMMP-2 (CHO cell-derived), proMMP-3 (NS0 cell-derived), proMMP-7 (NS0 cell-derived) and proMMP-8 (NS0 cell-derived) were purchased from R & D systems (Minneapolis, MN, USA), dissolved in assay buffer (150 mM NaCl, 5 mM CaCl2, 0.01% Tween-20, 50 mM Tris, pH 7.4) to a concentration of 100 µg/mL and activated by incubation with 1 mM p-aminophenylmercuric acetate for, respectively, 1h, 6h, 2h and 1h. Activation of MMPs was confirmed by a band shift of approximately 10 kDa, corresponding to the removal of the propeptide domain. MMP-14/MT1-MMP (NS0 cell-derived) was also purchased from R & D systems (Minneapolis, MN, USA) and activated by incubation with recombinant human furin (cat. No. 1503-SE-010, R & D systems, Minneapolis, MO, USA) in activation buffer (50 mM Tris, 1 mM CaCl2, 0.5% Brij-35, pH 9) for 1.5 h and activity was tested in assay buffer (50 mM Tris, 3 mM CaCl2, 1 µM ZnCl2, pH 8.5). Active human neutrophil elastase (NE) was purchased from Abcam (Cambridge, UK) and for activity assays of NE the assay buffer was replaced by 200 mM Tris, pH 8.8. ADAM17/TACE (Sf 21 (baculovirus)-derived, R & D systems, Minneapolis, MO, USA) was diluted and evaluated in 25 mM Tris, 2.5 μM ZnCl2, 0.005% Brij-35, pH 9.0. All stocks of the compounds were evaluated for the presence of endotoxin using the EndoZyme II assay (Hyglos bioMérieux, Bernried am Starnberger See, Germany). Endotoxin levels in all concentrated stocks (2.5 mg/mL) were below the accepted limit of 0.5 EU/mL.
(§1) To determine the inhibition of gelatinolytic activity, we used a previously optimized gelatin degradation assay. Activated MMP-9, activated MMP-2, neutrophil elastase or supernatants of stimulated neutrophils, were incubated with different concentrations of inhibitors and incubated for 30 min at 37 °C. Next, dye-quenched gelatin (DQ™-gelatin, Invitrogen, Carlsbad, CA, USA) was added at a final concentration of 2.5 µg/mL and the increase in fluorescence over time was measured with the CLARIOstar microplate reader (BMG Labtech, Ortenberg, Germany). For other MMPs, the OmniMMP substrate peptide (Mca-PLGL-Dpa-AR-NH2, cat. no. BML-P126-0001, Enzo Life Sciences, Farmingdale, NY, USA) was used at a final concentration of 2.5 µg/mL. For ADAM17 the fluorogenic peptide Mca-PLAQAV-Dpa-RSSSR-NH2 (ES003, R & D systems, Minneapolis, MO, USA) and for neutrophil elastase the fluorogenic substrate MeOSuc-AAPV-AMC (cat. no. 324740, Merck Millipore, Darmstadt, Germany) were used. Proteolytic activity was determined by linear regression of the fluorescence curve and the percentage inhibition was calculated through comparison with the positive control (no inhibitors). When testing supernatants from human neutrophils, the assay was performed in the presence of 20 µM neutrophil elastase inhibitor (Elastase Inhibitor IV, Calbiochem, Darmstadt, Germany).

Assay [2] deals with T2, neutrophil elastase (Homo sapiens, UniProt P08246).
T2 construct: Active human neutrophil elastase (NE) was purchased from Abcam; purchased Abcam
T2 sequence (P08246 30-267): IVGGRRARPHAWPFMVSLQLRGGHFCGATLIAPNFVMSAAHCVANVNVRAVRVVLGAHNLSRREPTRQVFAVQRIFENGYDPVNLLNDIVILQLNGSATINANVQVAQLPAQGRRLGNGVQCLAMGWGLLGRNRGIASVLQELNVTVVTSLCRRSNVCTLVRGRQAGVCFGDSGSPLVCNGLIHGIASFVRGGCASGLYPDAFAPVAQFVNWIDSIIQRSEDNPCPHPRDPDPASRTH
Put plainly: Neutrophil elastase activity assay (fluorogenic elastase peptide and gelatin). Particulars: fluorogenic elastase substrate and gelatin; tested up to an inhibitor concentration of 50 µM. The procedure: (§2) Compounds 5 and 7 were synthesized as previously reported. Full-length human proMMP-9 was produced by recombinant expression in Sf9 insect cells and purified by gelatin-Sepharose chromatography as previously described. Stable full-length proMMP-9 monomers and trimers were separated by glycerol gradient ultracentrifugation as previously described. ProMMP-9 mixture and the separated monomers and trimers were activated by incubation with the catalytic domain of MMP-3 (cat. No. 444217, Merck Millipore, Darmstadt, Germany) as previously described. […] ADAM17/TACE (Sf 21 (baculovirus)-derived, R & D systems, Minneapolis, MO, USA) was diluted and evaluated in 25 mM Tris, 2.5 μM ZnCl2, 0.005% Brij-35, pH 9.0. All stocks of the compounds were evaluated for the presence of endotoxin using the EndoZyme II assay (Hyglos bioMérieux, Bernried am Starnberger See, Germany). […]
(§3) To determine the inhibition of gelatinolytic activity, we used a previously optimized gelatin degradation assay. […] Next, dye-quenched gelatin (DQ™-gelatin, Invitrogen, Carlsbad, CA, USA) was added at a final concentration of 2.5 µg/mL and the increase in fluorescence over time was measured with the CLARIOstar microplate reader (BMG Labtech, Ortenberg, Germany). […]

The target of assay [3] is T3, MMP-7 (Homo sapiens, UniProt P09237).
T3 construct: purchased R & D systems; host or cells: NS0 cells
T3 sequence (P09237 95-267): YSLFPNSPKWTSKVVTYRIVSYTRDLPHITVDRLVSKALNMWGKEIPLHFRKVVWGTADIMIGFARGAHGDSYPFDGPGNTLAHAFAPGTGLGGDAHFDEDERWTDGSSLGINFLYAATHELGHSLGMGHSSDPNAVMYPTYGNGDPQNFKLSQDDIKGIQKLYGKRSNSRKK
Put plainly: MMP-7 OmniMMP peptide assay. Particulars: OmniMMP substrate peptide. The protocol: as §2, §3

Assay [4] relates to secretions of fMLF stimulated human granulocytes. Put plainly: Gelatinolysis in secretions of fMLF stimulated human granulocytes. The settings on record: in the presence of 20 µM neutrophil elastase inhibitor; for inhibition of metalloproteinase-derived gelatinolytic signal: highest dose of 100 µM. The protocol: as §1
Neutrophils were isolated from fresh blood from healthy donors, via density gradient centrifugation as described. To obtain neutrophil degranulate, neutrophils were suspended in degranulation buffer (120 mM NaCl, 15 mM CaCl2, 20 mM Tris/HCl pH 7.5) at a concentration of 10^7 cells/mL and degranulation was induced by incubating neutrophils with N-formyl-methionyl-leucyl-phenylalanine (fMLF) (final concentration 0.5 µM) for 20 min at 37 °C as previously described. Next, the supernatant was collected by centrifugation. For fresh blood donations, all subjects gave written informed consent in accordance with the Declaration of Helsinki.

For orientation: IC25 means the point of the concentration-response curve where the effect stands at 25%. As usually defined, the IC50 is the concentration that gives 50% inhibition. A word on the IC75: it is the concentration at which the effect reaches the 75% level.

T1 sequence (P14780 107-707 limits assumed): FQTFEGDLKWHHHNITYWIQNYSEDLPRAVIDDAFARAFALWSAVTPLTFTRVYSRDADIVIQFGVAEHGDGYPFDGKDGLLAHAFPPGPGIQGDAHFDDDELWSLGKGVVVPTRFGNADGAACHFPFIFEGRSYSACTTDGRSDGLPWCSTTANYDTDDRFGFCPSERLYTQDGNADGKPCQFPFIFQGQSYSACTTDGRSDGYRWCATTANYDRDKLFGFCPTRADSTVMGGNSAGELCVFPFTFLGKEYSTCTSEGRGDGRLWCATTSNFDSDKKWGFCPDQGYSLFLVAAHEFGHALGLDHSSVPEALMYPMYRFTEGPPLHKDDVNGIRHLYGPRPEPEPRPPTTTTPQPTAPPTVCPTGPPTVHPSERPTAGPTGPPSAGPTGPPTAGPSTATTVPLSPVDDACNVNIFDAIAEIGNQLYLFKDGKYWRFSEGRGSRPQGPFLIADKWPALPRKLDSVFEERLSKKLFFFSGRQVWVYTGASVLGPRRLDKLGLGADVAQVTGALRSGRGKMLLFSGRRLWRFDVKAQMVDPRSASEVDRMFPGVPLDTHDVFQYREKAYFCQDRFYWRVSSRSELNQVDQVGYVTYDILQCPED

For the compound `CC(C)[C@H](C(=O)O)N(CCNC(=O)c1ccccc1)S(=O)(=O)c1ccc(-c2ccccc2)cc1` [Compound 5], the 25% effect concentration (IC25) in assay [1] worked out at 359 nM. Also, the half-inhibitory concentration (IC50) in assay [1] was 1410 nM; in assay [2] it was “no inhibition ^†”; in assay [3], greater than 10 µM. Besides, the IC75 in assay [1] was 5.509 µM. Besides, the “inhibition of metalloproteinase-derived gelatinolytic signal” value in assay [4] is “approximately 30%”.
Consider `CC(C)[C@H](C(=O)O)N(CCNC(=O)c1cccc(C(=O)NCCN([C@@H](C(=O)O)C(C)C)S(=O)(=O)c2ccc(-c3ccccc3)cc2)c1)S(=O)(=O)c1ccc(-c2ccccc2)cc1` [Compound 7], for which, in assay [1], the IC25 was determined as 28 nM, the IC50 is 182 nM and the IC75 was 0.627 µM. In addition, the 50% inhibitory concentration (IC50) entry in assay [2] is reported as “no inhibition ^†”. Further, the half-inhibitory concentration (IC50) in assay [3] is greater than 10 µM. Also, in assay [4] (around a concentration of 1 µM), the “inhibition of metalloproteinase-derived gelatinolytic signal, first inhibition plateau” value is “approximately 30%”. For the same compound, the “inhibition of metalloproteinase-derived gelatinolytic signal” value in assay [4] is reported as “almost complete inhibition”.

The values above are taken from publication PMC7408547, “Bivalent Inhibitor with Selectivity for Trimeric MMP-9 Amplifies Neutrophil Chemotaxis and Enables Functional Studies on MMP-9 Proteoforms” (Cells, 2020).
